# Test results taken from patent US10980892B2, “Methods for the treatment of leptomeningeal carcinomatosis” (Angiochem Inc., priority 2015, dated 2021).
# Experiments:
# [1] = system: leptomeningeal carcinomatosis; experiment: Treatment of individual LC subjects with ANG1005 (Subjects 2, 3, 4, 8); format: in vivo, human
# Description: Subject 2 presented at the time of treatment with ANG1005 with an active tumor extending from the deep portion of the surgical cavity to the right tentorial surface and along the lateral right temporal occipital dural surface. Subject 2 started treatment with ANG1005 in October 2014 and received 7 cycles (once every three weeks). Treatment was terminated due to clinical disease progression.
# Subject 3 presented at the time of treatment with ANG1005 with numerous (>10) brain metastases all of which had increased in size despite prior treatment. Extensive scattered osseous metastatic disease in head/neck. After presenting with a numb chin (left trigeminal cranial nerve deficits), Subject 3 was also found to have leptomeningeal disease. Subject 3 started treatment with ANG1005 in September 2014 and received 5 cycles (once every three weeks). Treatment was terminated due to adverse event (pneumonia).
# Subject 4 is a person diagnosed in October 2011 with HER2+/ER−/PgR− ductal carcinoma in situ. In November 2012, Subject 4 was diagnosed with brain metastases, and in March 2015 the brain metastases relapsed with leptomeningeal carcinomatosis. Subject 4 previously received several courses of therapy including carboplatin from October to November 2011, denosumab from November 2011 to November 2012, paclitaxel from December 2011 to March 2012, WBRT, transtuzumab from May 2012 to November 2012, and kadcyla from April 2013 to December 2014. Subject 4 presented at the time of treatment with ANG1005 with parenchymal metastases present in the cerebellum and widespread LC of the cerebellum and cerebral hemispheres. In addition, Subject 4 presented with mild ventricular enlargement with compression upon the fourth ventricle and cutflow tracts. Subject 4 started treatment with ANG1005 in March 2015 and received 8 cycles (once every three weeks). Subject withdrew from treatment due to low performance scores.
# Subject 8 started treatment with ANG1005 in April 2015 and received 2 cycles (once every three weeks). Subject 8 terminated from treatment in July 2015 due to clinical progression.
# [2] = system: leptomeningeal carcinomatosis; experiment: Kaplan-Meier estimates of survival for subjects with LC; format: in vivo, human; conditions: compared to historical median overall survival of 3-6 months following aggressive treatment
# Description: The Kaplan-Meier method was used to estimate the overall survival of LC subjects treated with ANG1005.
# [3] = system: leptomeningeal carcinomatosis (LC); experiment: Treatment of LC in breast cancer subjects, CNS RECIST brain parenchymal tumor response; format: in vivo, human; conditions: 600 mg/m^2 iv tri-weekly
# Method: Twenty-eight subjects diagnosed with LC were administered 600 mg/m^2 of ANG1005 intravenously on a tri-weekly schedule. The subjects received between one and nine cycles of ANG1005.
# The results of the treatment of the subjects according to CNS Response Evaluation Criteria in Solid Tumors (RECIST) based on brain parenchymal tumor response is shown in Table 2.
# LRP receptor [4] = experiment: Inhibition of brain uptake of an Angiopep conjugate by LRP ligands
# Description: (§1) The methods of the invention may be especially useful in treating cancers having cells that express low density lipoprotein-related protein (LRP) receptor. The LRP receptor is expressed on the surface of cells, and is capable of binding to various substrates including aprotinin. The polypeptides described herein were designed based on the consensus kunitz-domain sequences that act as LRP receptor ligands (see, e.g., PCT Publication No. WO 2004/060403). Uptake of the conjugates including Angiopep-1 or Angiopep-2 is inhibited by LRP ligands, thus indicating involvement of LRP in this process.
# LRP receptor [5] = molecular target: T1, LRP receptor (Homo sapiens, UniProt Q07954); experiment: Inhibition of uptake of Angiopep conjugates into cells; format: cell-based; conditions: Angiopep-2 10 or 100 μM
# T1 construct: The LRP receptor is expressed on the surface of cells; endogenous in cells
# T1 sequence (Q07954 20-4544): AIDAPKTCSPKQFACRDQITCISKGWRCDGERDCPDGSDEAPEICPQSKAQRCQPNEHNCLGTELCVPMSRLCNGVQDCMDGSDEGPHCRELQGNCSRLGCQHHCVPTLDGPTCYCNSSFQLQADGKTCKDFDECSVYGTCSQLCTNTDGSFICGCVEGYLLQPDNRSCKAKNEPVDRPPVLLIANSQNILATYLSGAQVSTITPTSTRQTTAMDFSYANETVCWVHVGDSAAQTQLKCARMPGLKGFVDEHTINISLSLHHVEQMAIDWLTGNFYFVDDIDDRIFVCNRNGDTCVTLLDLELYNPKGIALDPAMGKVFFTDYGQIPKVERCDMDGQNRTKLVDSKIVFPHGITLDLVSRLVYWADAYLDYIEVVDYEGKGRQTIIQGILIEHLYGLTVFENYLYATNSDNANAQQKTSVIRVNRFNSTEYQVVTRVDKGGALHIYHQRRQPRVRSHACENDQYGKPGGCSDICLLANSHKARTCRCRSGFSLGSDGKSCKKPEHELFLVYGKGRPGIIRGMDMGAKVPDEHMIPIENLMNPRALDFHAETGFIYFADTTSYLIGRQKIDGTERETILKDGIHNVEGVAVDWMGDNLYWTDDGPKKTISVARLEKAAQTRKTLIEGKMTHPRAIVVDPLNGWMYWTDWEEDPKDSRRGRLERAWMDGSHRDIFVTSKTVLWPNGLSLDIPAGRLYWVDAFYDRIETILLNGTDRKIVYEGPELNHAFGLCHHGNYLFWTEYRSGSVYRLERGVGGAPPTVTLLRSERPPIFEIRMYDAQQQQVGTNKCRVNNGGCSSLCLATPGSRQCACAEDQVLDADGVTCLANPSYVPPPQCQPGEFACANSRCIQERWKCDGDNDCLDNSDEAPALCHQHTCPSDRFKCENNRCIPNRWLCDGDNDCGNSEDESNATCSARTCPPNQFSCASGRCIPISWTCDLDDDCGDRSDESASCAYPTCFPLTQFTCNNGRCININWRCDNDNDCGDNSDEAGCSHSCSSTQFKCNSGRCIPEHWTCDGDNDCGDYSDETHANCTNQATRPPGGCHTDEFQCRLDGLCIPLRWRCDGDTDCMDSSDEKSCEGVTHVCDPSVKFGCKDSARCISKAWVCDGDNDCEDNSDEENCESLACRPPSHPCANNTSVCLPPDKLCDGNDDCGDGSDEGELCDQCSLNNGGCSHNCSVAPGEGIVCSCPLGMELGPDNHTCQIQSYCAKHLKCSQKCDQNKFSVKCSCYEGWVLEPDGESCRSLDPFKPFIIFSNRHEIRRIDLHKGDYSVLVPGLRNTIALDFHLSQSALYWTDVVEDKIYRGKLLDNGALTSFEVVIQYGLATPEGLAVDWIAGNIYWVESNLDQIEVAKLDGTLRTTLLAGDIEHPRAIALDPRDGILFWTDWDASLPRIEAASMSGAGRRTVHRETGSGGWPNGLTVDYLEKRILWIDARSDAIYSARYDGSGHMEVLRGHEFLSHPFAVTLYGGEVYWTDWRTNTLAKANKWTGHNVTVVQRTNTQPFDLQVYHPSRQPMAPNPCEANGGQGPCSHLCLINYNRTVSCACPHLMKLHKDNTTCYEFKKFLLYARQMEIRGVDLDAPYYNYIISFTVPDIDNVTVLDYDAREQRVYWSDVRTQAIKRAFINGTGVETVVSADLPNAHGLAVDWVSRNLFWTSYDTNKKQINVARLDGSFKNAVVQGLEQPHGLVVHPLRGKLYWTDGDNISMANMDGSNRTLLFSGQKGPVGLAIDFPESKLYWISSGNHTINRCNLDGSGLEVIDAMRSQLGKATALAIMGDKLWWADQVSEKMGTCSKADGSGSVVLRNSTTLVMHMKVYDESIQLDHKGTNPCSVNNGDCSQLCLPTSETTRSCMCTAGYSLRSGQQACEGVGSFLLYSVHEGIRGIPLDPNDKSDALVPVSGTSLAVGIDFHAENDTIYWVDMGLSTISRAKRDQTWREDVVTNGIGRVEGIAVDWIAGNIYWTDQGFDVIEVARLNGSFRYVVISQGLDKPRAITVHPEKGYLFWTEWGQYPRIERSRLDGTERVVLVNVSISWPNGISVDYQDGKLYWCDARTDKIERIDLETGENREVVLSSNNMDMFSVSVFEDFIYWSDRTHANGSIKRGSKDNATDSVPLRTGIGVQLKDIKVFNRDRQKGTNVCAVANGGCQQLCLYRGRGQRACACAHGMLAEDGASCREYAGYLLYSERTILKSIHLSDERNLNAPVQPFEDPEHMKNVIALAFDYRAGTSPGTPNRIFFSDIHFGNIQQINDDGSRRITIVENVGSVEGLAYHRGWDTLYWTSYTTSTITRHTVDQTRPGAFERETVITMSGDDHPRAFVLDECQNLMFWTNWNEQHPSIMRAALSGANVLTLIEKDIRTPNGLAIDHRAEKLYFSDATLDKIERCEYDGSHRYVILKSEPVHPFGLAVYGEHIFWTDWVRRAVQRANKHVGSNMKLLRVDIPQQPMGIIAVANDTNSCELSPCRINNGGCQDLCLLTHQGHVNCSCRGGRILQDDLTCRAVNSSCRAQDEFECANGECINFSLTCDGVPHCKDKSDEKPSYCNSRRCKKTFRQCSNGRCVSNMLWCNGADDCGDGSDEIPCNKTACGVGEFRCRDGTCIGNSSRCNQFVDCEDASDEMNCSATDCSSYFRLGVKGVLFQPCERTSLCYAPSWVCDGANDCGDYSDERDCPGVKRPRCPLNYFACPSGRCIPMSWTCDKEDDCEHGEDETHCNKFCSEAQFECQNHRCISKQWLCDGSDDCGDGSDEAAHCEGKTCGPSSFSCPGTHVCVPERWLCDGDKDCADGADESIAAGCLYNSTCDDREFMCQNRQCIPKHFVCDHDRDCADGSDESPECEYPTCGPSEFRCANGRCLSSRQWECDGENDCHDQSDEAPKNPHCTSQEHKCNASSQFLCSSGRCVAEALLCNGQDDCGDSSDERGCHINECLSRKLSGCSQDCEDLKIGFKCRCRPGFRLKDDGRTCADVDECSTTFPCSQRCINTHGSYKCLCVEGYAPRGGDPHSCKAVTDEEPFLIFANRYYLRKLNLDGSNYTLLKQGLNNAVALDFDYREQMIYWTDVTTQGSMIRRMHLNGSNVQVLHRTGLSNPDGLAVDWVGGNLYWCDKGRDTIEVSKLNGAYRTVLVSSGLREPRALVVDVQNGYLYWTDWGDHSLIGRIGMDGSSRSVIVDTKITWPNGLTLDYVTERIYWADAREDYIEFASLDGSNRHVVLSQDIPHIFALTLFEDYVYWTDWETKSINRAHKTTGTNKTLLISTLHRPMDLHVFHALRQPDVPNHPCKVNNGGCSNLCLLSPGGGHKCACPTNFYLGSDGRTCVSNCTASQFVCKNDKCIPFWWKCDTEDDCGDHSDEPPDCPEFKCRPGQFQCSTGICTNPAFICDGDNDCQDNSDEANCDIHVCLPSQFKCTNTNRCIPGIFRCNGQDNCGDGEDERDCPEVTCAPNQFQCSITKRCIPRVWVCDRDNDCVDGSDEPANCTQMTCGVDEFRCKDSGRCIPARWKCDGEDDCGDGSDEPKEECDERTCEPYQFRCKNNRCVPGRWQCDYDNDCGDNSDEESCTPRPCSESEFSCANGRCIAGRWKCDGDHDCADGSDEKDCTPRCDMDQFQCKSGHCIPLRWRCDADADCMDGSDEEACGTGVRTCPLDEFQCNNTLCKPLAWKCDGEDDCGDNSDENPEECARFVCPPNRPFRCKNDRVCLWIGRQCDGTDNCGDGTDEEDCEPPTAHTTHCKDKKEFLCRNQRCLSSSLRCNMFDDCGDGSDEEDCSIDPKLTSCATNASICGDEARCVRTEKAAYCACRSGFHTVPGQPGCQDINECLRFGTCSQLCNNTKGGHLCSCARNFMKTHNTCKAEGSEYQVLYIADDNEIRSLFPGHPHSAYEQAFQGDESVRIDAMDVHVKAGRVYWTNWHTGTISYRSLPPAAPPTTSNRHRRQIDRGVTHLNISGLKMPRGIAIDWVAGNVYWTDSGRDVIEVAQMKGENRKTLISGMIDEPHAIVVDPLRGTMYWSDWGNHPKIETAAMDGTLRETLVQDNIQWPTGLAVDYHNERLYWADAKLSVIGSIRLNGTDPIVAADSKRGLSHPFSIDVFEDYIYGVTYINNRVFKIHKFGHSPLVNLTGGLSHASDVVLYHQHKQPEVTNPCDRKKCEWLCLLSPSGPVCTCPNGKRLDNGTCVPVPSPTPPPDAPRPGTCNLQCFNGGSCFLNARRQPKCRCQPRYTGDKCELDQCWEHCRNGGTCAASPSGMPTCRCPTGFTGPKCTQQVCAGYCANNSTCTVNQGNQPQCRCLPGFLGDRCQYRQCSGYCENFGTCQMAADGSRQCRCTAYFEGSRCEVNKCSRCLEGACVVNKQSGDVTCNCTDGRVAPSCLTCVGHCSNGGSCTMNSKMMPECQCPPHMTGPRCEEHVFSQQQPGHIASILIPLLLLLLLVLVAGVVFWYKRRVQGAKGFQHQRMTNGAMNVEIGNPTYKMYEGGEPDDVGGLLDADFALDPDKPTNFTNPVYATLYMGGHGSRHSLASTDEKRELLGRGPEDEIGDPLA
# Description: as §1
molecule,measurement,setting,value
CC(=O)O[C@H]1C(=O)[C@@]2(C)[C@H]([C@H](OC(=O)c3ccccc3)[C@]3(O)C[C@H](OC(=O)C(OC(=O)CCC(=O)NCCCC[C@H](NN[C@@H](Cc4ccccc4)C(=O)C(=O)C(CC(N)=O)NC(=O)[C@H](CC(N)=O)NC(=O)[C@H](CCCNC(=N)N)NC(=O)[C@H](CCCCNC(=O)CCC(=O)O[C@@H](C(=O)O[C@H]4C[C@@]5(O)[C@@H](OC(=O)c6ccccc6)[C@@H]6[C@]7(OC(C)=O)CO[C@@H]7C[C@H](O)[C@@]6(C)C(=O)[C@H](OC(C)=O)C(=C4C)C5(C)C)[C@@H](NC(=O)c4ccccc4)c4ccccc4)NNCC(=O)C(=O)[C@H](CCCNC(=N)N)NC(=O)[C@H](CO)NC(=O)CNC(=O)CNC(=O)C(Cc4ccc(O)cc4)NC(=O)[C@H](Cc4ccccc4)NC(=O)C(Cc4ccccc4)NCC(=O)[C@H](NC(=O)CCC(=O)O[C@@H](C(=O)O[C@H]4C[C@@]5(O)[C@@H](OC(=O)c6ccccc6)[C@@H]6[C@]7(OC(C)=O)CO[C@@H]7C[C@H](O)[C@@]6(C)C(=O)[C@H](OC(C)=O)C(=C4C)C5(C)C)[C@@H](NC(=O)c4ccccc4)c4ccccc4)C(C)O)C(=O)N[C@H](C(=O)NC(CCC(=O)O)C(=O)N[C@@H](CCC(=O)O)C(=O)NC(C=O)Cc4ccc(O)cc4)[C@@H](C)O)[C@@H](NC(=O)c4ccccc4)c4ccccc4)C(C)=C1C3(C)C)[C@]1(OC(C)=O)CO[C@@H]1C[C@@H]2O (stereo partly shown) [ANG1005],Response of leptomeningeal carcinomatosis,"[1]; Subject 2, HER2+/ER−/PgR+, 7 cycles once every three weeks, dural lesion no longer apparent, leptomeningeal nodule decreasing in size",responded
same,Response of leptomeningeal carcinomatosis,"[1]; Subject 3, HER2+/ER−/PgR−, 5 cycles once every three weeks",improved both radiographically and clinically
same,Adverse event causing treatment termination,"[1]; Subject 3, after 5 cycles once every three weeks",pneumonia
same,Response of leptomeningeal carcinomatosis,"[1]; Subject 4, HER2+/ER−/PgR−, 8 cycles once every three weeks, diminished nodular leptomeningeal enhancement, decreased leptomeningeal tumor burden",responded
same,Response of leptomeningeal carcinomatosis,"[1]; Subject 8, HER2+/ER+/PgR−, 2 cycles once every three weeks, improvement in extensive LC in the cerebellum",responded
same,Median overall survival (Kaplan-Meier estimate),[2],increase median overall survival
same,"Partial Response (PR), number of patients",[3]; All Patients (n = 23),5
same,"Partial Response (PR), percent of patients",[3]; All Patients (n = 23),(22%)
same,"Patient Benefit (PR + SD), number of patients",[3]; All Patients (n = 23),17
same,"Progressive Disease, number of patients",[3]; All Patients (n = 23),6
same,"Progressive Disease, percent of patients",[3]; All Patients (n = 23),(26%)
same,"Stable Disease (SD), number of patients",[3]; All Patients (n = 23),12
same,"Stable Disease (SD), percent of patients",[3]; All Patients (n = 23),(52%)
same,"Partial Response (PR), number of patients",[3]; HER2+ (n = 15),4
same,"Partial Response (PR), percent of patients",[3]; HER2+ (n = 15),(27%)
same,"Patient Benefit (PR + SD), number of patients",[3]; HER2+ (n = 15),12
same,"Progressive Disease, number of patients",[3]; HER2+ (n = 15),3
same,"Progressive Disease, percent of patients",[3]; HER2+ (n = 15),(20%)
same,"Stable Disease (SD), number of patients",[3]; HER2+ (n = 15),8
same,"Stable Disease (SD), percent of patients",[3]; HER2+ (n = 15),(53%)
same,"Partial Response (PR), number of patients",[3]; HER2− (n = 8),1
same,"Partial Response (PR), percent of patients",[3]; HER2− (n = 8),(12.5%)
same,"Patient Benefit (PR + SD), number of patients",[3]; HER2− (n = 8),5
same,"Patient Benefit (PR + SD), percent of patients",[3]; HER2− (n = 8),(62.5%)
same,"Progressive Disease, number of patients",[3]; HER2− (n = 8),3
same,"Progressive Disease, percent of patients",[3]; HER2− (n = 8),(37.5%)
same,"Stable Disease (SD), number of patients",[3]; HER2− (n = 8),4
same,"Stable Disease (SD), percent of patients",[3]; HER2− (n = 8),(50%)
RAP: LRP ligand,Effect on brain uptake of an Angiopep conjugate,LRP receptor [4]; RAP 200 nM,capable of reducing brain uptake
TFFYGGSRGKRNNFKTEEY [Angiopep-2],Effect on uptake of the conjugates into cells,LRP receptor [5],able to reduce uptake
aprotinin,Effect on brain uptake of an Angiopep conjugate,LRP receptor [4]; aprotinin 10 μM,capable of reducing brain uptake
